Test results: ChEMBL document CHEMBL4813915, “Deep learning enables discovery of highly potent anti-osteoporosis natural products” (Eur J Med Chem, 2021); call rule not given here

What was measured:
[1] = Inhibition of GST-tagged recombinant RANKL/M-CSF-induced osteoclastogenesis in C57BL/6 mouse bone marrow derived macrophages assessed as TRAcP enzymatic activity incubated for 5 days with subsequent replenishment of media for 2 days and measured by leucocyte acid phosphatase staining method; format: functional, tissue-based; conditions: bmdm
[2] = Cytotoxicity against C57BL/6 mouse bone marrow measured after 48 hrs by CCK8 assay; format: tissue-based, BMDM; conditions: mouse bone marrow cells
[3] = test system: BMDM; test: Inhibition of RANKL-induced osteoclastogenesis in C57BL/6 mouse bone marrow derived macrophages assessed as reduction in CTSK mRNA expression measured after 4 days by qRT-PCR method; format: functional, tissue-based; conditions: dose 0.5-5 µM, time 4.0 day
[4] = test system: BMDM; test: Inhibition of RANKL-induced osteoclastogenesis in C57BL/6 mouse bone marrow derived macrophages assessed as reduction in NFATC1 mRNA expression measured after 4 days by qRT-PCR method; format: functional, tissue-based; conditions: dose 0.5-5 µM, time 4.0 day
[5] = test system: BMDM; test: Inhibition of RANKL-induced osteoclastogenesis in C57BL/6 mouse bone marrow derived macrophages assessed as reduction in TRACP mRNA expression measured after 4 days by qRT-PCR method; format: functional, tissue-based; conditions: dose 0.5-5 µM, time 4.0 day
[6] = test system: BMDM; test: Inhibition of RANKL-induced osteoclastogenesis in C57BL/6 mouse bone marrow derived macrophages assessed as reduction in RANK mRNA expression measured after 4 days by qRT-PCR method; format: functional, tissue-based; conditions: dose 0.5-5 µM, time 4.0 day

Q: Which IC50 ([1]; read-out: IC50) does the source give for C=C1CC[C@@H]2[C@](C)(CO)[C@H](O)CC[C@@]2(C)[C@@H]1C/C=C1/C(=O)OC[C@H]1O [ANDROGRAPHOLIDE] here?
A: The IC50 was 0.55 µM.

Q: For COc1c2cc3c(cc2nc2occc12)OCO3 [MACULINE], which IC50 [1] is on record?
A: Its IC50 is “Not Active”.

Q: With COc1cc2nc3occc3c(OC)c2cc1OC [KOKUSAGININE] as the compound, how does the IC50 ([1]; read-out: IC50) read?
A: Its IC50 is 3.16 µM.

Q: Which IC50 [1] does the source give for COc1ccc(C[C@H]2c3cc(OC)c(OC)cc3CCN2C)cc1OC here?
A: Its IC50 is “Not Active”.

Q: For C[C@@H]1CC[C@@]2(OC1)O[C@H]1C[C@H]3[C@@H]4CC[C@H]5C[C@H](O)CC[C@]5(C)C4=CC[C@]3(C)[C@H]1[C@@H]2C, which IC50 [1] is on record?
A: The IC50 was “Not Active”.

Q: With CC(=O)[C@H]1CC[C@H]2[C@@H]3CC[C@H]4C[C@@H](OC(=O)Cc5ccc(C(=O)c6ccccc6)cc5)CC[C@]4(C)[C@H]3CC[C@]12C as the compound, how does the IC50 ([1]; read-out: IC50) read?
A: Its IC50 is 1.73 µM.

Q: Which IC50 [1] does the source give for COc1cc([C@H]2OC[C@H]3[C@@H]2CO[C@@H]3c2ccc(OC(C)=O)c(OC)c2)ccc1OC(C)=O here?
A: The IC50 was “Not Active”.

Q: Which results are given for COc1ccc2c(c1)CCN=C2Cc1ccc(OCc2ccccc2)c(OC)c1C?
A: IC50 ([1]; read-out: IC50): 0.068 µM; CC50 at 48 h [2]: 19.9 µM; inhibition [3]: Dose-Dependent Effect; inhibition [4]: Dose-Dependent Effect; inhibition [5]: Dose-Dependent Effect; inhibition [6]: Dose-Dependent Effect

Q: For COc1cc2c(cc1OC)C(Cc1ccc(OCc3ccccc3)c(OC)c1)=NCC2, which IC50 ([1]; read-out: IC50) is on record?
A: The IC50 was 0.032 µM.

Q: And the CC50 at 48 h [2]?
A: Its CC50 at 48 h is 26.9 µM.

Q: And the inhibition [3]?
A: The inhibition was “Dose-Dependent Effect”.

Q: What about the inhibition [4] of the same compound?
A: The inhibition was “Dose-Dependent Effect”.

Q: And the inhibition [5]?
A: Its inhibition is “Dose-Dependent Effect”.

Q: What about the inhibition [6] of the same compound?
A: The inhibition was “Dose-Dependent Effect”.

Q: Which IC50 [1] does the source give for COc1ccc(C(=O)/C=C/c2ccccc2)c(O)c1 here?
A: Its IC50 is “Not Active”.
